The text below walks through data of PubChem BioAssay AID179 (DTP/NCI, 2004).

The source made the active and inactive calls.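 How the source made its calls: active means compounds giving half or more protection of infected cells from virus-caused growth loss, again on retest; inactive means the rest.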 Where only a bound is given, the exact number is not on record here.

For this assay, the system named is CEM cells HIV-1 protection, formazan growth assay. In words: NCI AIDS Antiviral Assay. The settings on record: for IC50: measured here: growth of uninfected CEM cells. The gist of the method:
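Human CEM cells, uninfected and HIV-1-infected, exposed to five drug concentrations; growth measured by soluble formazan assay and scored as percent protection from infection, with protecting compounds retested.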

The EC50 is the midpoint of the concentration-response curve. As usually defined, the IC50 is the concentration that inhibits the measured activity by half. Read a high IC50 as lower potency.

In the case of `CCOC(=O)Nc1cc(NC(/C=N/NC(C)=O)C(=O)OCC)c(OC)cc1NC(C)=O` (configuration not stated), the EC50 is over 200 µM and the IC50 is over 200 µM.
In the case of `COc1c(-c2ccc3c(c2)OCO3)oc2cc3c(c(OC)c2c1=O)OCO3`, the EC50 was over 200 µM and the IC50 was over 200 µM.
In the case of `CC(=O)C1c2ccccc2C(C(C)=O)(c2ccccc2)C1c1ccccc1` (configuration not stated), the EC50 is over 200 µM and the IC50 was 38 µM.
With `COc1ccc(C(=O)C[P+](c2ccccc2)(c2ccccc2)c2ccccc2)cc1`, the EC50 was over 200 µM and the IC50 amounted to 33.9 µM.
As to `O=C(Nc1cccc([N+](=O)[O-])c1)/C(=N\NC(=O)c1ccncc1)c1nc2ccc([N+](=O)[O-])cc2[nH]c1=O`, the EC50 is over 135 µM and the IC50 was 47.9 µM.
As for `Cn1cc2c(=O)n3ncn(-c4ccc(Br)cc4)c3nc2n1`, the EC50 is over 200 µM and the IC50 is over 200 µM.
Turning to `COc1cc2c(c(OC)c1OC)C(=O)CC2N` (configuration not stated), the EC50 is over 200 µM and the IC50 was over 200 µM.
Take `Cc1nc2ccccc2c(=O)n1NC(=S)Nc1ccc(Cl)cc1[N+](=O)[O-]`: the EC50 is over 93.3 µM and the IC50 is over 93.3 µM.
`C[C@H](NC(=O)c1ccccc1SC(=O)OCCCCCl)C(N)=O` had an EC50 of 20.9 µM and an IC50 of over 200 µM.
`COc1c2c(cc3c1C(=O)c1c(O)cccc1C3=O)CC(O)CC2` (configuration not stated): the EC50 was over 200 µM and the IC50 was over 200 µM.
Consider `CNc1cc(Cl)ccc1C(=O)N1CCC[C@H]1CO`, for which the EC50 is over 200 µM and the half-inhibitory concentration (IC50) worked out at 191 µM.
Consider `C=CC12CCCCC1CC(C(=O)OC)=C(O)C2` (configuration not stated), for which the result was inactive.
As for `Cc1cc(O)c2c(c1)C(=O)c1cccc(O)c1C2=O`, the EC50 was over 28.2 µM and the IC50 was over 28.2 µM.
As to `O=S(Cc1ccccc1)/C(=C/NC(=S)N=Nc1c(O)[nH]c2ccccc12)c1ccccc1` (configuration not stated), the EC50 is 58.9 µM and the IC50 amounted to 178 µM.
In the case of `O=C(c1ccco1)N(C(=S)N1CCN(c2ccccc2)CC1)c1ccccc1`, the EC50 is over 18.2 µM and the IC50 is over 18.2 µM.
In the case of `Cc1cc(C)nc(NC(P(=O)(O)O)P(=O)(O)O)n1`, the EC50 is over 200 µM and the IC50 was over 200 µM.
In the case of `Oc1c(C(O)c2ccccn2)ccc2ccccc12` (configuration not stated), the EC50 was over 200 µM and the IC50 turned out to be 36.3 µM.
Consider `COc1cc(/C=C/c2ccc(O)c(OC)c2)cc(OC)c1`, for which the EC50 was over 126 µM and the IC50 worked out at 2.14 µM.
For `CCOC(=O)/C(=C/c1cc(OC)ccc1OC)P(=O)(OCC)OCC`, the EC50 was over 676 µM and the IC50 came to 316 µM.
`CCNC(=S)N/N=C(/c1ccccc1)c1ccccn1`: the EC50 is over 200 µM and the IC50 stood at 1 µM.
Turning to `CCCCc1ccc(C#CC#Cc2ccc(CCCC)s2)s1`, the EC50 is over 200 µM and the IC50 was over 200 µM.
For the compound `O=C(O)C12C(=O)NC(=O)C1(C(=O)O)C21CCCCC1` (configuration not stated), the EC50 is over 933 µM and the IC50 was over 933 µM.
Consider `ClCCN1CCOC1=Nc1ccc2c(c1)CCCC2`, for which the EC50 is over 200 µM and the IC50 worked out at 43.7 µM.
For `CCOC(=O)CC(NCc1ccc(N=Cc2nc3ccc(C(F)(F)F)cc3nc2-c2ccccc2)cc1)C(=O)OCC` (configuration not stated), in that order: over 200 µM and 162 µM.
For the compound `Cc1cccc(CC(Cc2c(C)cccc2C(=O)O)C(=O)O)c1` (configuration not stated), the EC50 is over 200 µM and the IC50 was over 200 µM.
In the case of `COc1cc2cc(C(=O)N3CC(CCl)c4c3cc(NC(=O)C(C)Nc3c([N+](=O)[O-])cc(C(=O)NCCN(C)C)cc3[N+](=O)[O-])c3ccccc43)[nH]c2c(OC)c1OC` (configuration not stated), the EC50 is over 0.1 µM and the IC50 turned out to be 0.0575 µM.
For `CC1(C)CC(=O)C2=C(C1)S/C(=C1/SC3=C(S1)C(=O)CC(C)(C)C3)S2` the same measures were over 6.92 µM and over 6.92 µM.
For `O=[N+]([O-])O.[Ga]`, the EC50 was over 100 µM and the IC50 is over 100 µM.
As for `C[s+]1c2ccccc2c2ccccc21`, the EC50 was over 22.9 µM and the IC50 was determined as 18.6 µM.
